Experimental data: BindingDB's records for doi:10.1016/j.bmcl.2003.09.074 (Eli Lilly, 2003)
*1 amine or outer side, *2 acyl side, *3 side chain or, on linkers, in order; H or OH if unused. Where a SMILES comes first, the peptide text is derived from it. [ ]: non-standard residue; d: D form. The star is where a group is joined. Pro(3S,4R-(CH2)3) = O=C(O)[C@H]1NC[C@@H]2CCC[C@@H]21; Pyrazinecarbonyl = O=C(c1cnccn1)*; X1 = CCCC(N[*:1])C(=O)C(=O)[*:2]

Experiments:
[1] = Cytotoxic activity against Protease in […] Huh-7 cells
[2] = Binding affinity towards Protease using PNA assay in rats
[3] = Cytotoxic activity against Protease in […] Huh-7 cells at 100 uM concentration
[4] = Cytotoxic activity against Protease in […] Huh-7 cells; remark: listed apart in the source

SMILES | IC50 [1] [nM] | Ki [2] [nM] | IC50 [3] [nM] | IC50 [4] [nM]
CCCC(NC(=O)[C@@H]1[C@H]2CCC[C@H]2CN1C(=O)[C@@H](NC(=O)[C@@H](NC(=O)c1cnccn1)C(C)C)C(C)C)C(=O)C(=O)N[C@@H](Cc1ccccc1)C(=O)O (stereo partly drawn) [2-(3-{[(1S,5S,6R)-2-((S)-3-Methyl-2-{(S)-3-methyl-2-[(pyrazine-2-carbonyl)-amino]-butyrylamino}-butyryl)-octahydro-cyclopenta[c]pyrrole-1-carbonyl]-amino}-2-oxo-hexanoylamino)-3-phenyl-propionic acid] (Pyrazinecarbonyl-VV[Pro(3S,4R-(CH2)3)][X1]F-OH) | > 100000 | 68 | – | –
CCCC(NC(=O)[C@@H]1[C@H]2CC[C@@H](OCOC)C2CN1C(=O)[C@@H](NC(=O)[C@@H](NC(=O)c1cnccn1)C(C)C)C(C)C)C(=O)C(=O)NC1CC1 (stereo partly drawn) [(1S,5S)-4-Methoxymethoxy-2-((S)-3-methyl-2-{(S)-3-methyl-2-[(pyrazine-2-carbonyl)-amino]-butyrylamino}-butyryl)-octahydro-cyclopenta[c]pyrrole-1-carboxylic acid ((R)-1-cyclopropylaminooxalyl-butyl)-amide] | > 100000 | 415 | – | –
CCCC(NC(=O)[C@@H]1[C@H]2CC[C@@H](OCOC)C2CN1C(=O)[C@@H](NC(=O)[C@@H](NC(=O)c1cnccn1)C(C)C)C(C)C)C(=O)C(=O)N[C@@H](C)c1ccccc1 (stereo partly drawn) [(1S,5S)-4-Methoxymethoxy-2-((S)-3-methyl-2-{(S)-3-methyl-2-[(pyrazine-2-carbonyl)-amino]-butyrylamino}-butyryl)-octahydro-cyclopenta[c]pyrrole-1-carboxylic acid [(R)-1-((S)-1-phenyl-ethylaminooxalyl)-butyl]-amide] | – | 332 | 33000 | –
CCCC(NC(=O)[C@@H]1[C@H]2CC=C[C@H]2CN1C(=O)[C@@H](NC(=O)[C@@H](NC(=O)c1cnccn1)C(C)C)C(C)C)C(=O)C(=O)NC1CC1 (stereo partly drawn) [(1S,5S,6R)-2-((S)-3-Methyl-2-{(S)-3-methyl-2-[(pyrazine-2-carbonyl)-amino]-butyrylamino}-butyryl)-1,2,3,3a,6,6a-hexahydro-cyclopenta[c]pyrrole-1-carboxylic acid (1-cyclopropylaminooxalyl-butyl)-amide] | > 100000 | 90 | – | –
CCCC(NC(=O)[C@@H]1[C@H]2CC=C[C@H]2CN1C(=O)[C@@H](NC(=O)[C@@H](NC(=O)c1cnccn1)C(C)C)C(C)C)C(=O)C(=O)N[C@@H](C)c1ccccc1 (stereo partly drawn) [(1S,5S,6R)-2-((S)-3-Methyl-2-{(S)-3-methyl-2-[(pyrazine-2-carbonyl)-amino]-butyrylamino}-butyryl)-1,2,3,3a,6,6a-hexahydro-cyclopenta[c]pyrrole-1-carboxylic acid [1-((S)-1-phenyl-ethylaminooxalyl)-butyl]-amide] | – | 880 | – | –
CCCC(NC(=O)[C@@H]1[C@H]2CC=C[C@H]2CN1C(=O)[C@@H](NC(=O)[C@@H](NC(=O)c1cnccn1)C(C)C)C(C)C)C(=O)C(=O)N[C@@H](C)CC (stereo partly drawn) [(1S,5S,6R)-2-((S)-3-Methyl-2-{(S)-3-methyl-2-[(pyrazine-2-carbonyl)-amino]-butyrylamino}-butyryl)-1,2,3,3a,6,6a-hexahydro-cyclopenta[c]pyrrole-1-carboxylic acid [1-((S)-sec-butylaminooxalyl)-butyl]-amide] | – | 625 | – | –
CCCC(NC(=O)[C@@H]1[C@H]2CCC(F)(F)[C@H]2CN1C(=O)[C@@H](NC(=O)[C@@H](NC(=O)c1cnccn1)C(C)C)C(C)C)C(=O)C(=O)NC1CC1 (stereo partly drawn) [(1S,5S,6R)-4,4-Difluoro-2-((S)-3-methyl-2-{(S)-3-methyl-2-[(pyrazine-2-carbonyl)-amino]-butyrylamino}-butyryl)-octahydro-cyclopenta[c]pyrrole-1-carboxylic acid (1-cyclopropylaminooxalyl-butyl)-amide] | > 100000 | 370 | – | –
CCCC(NC(=O)[C@@H]1[C@H]2CC[C@H](F)[C@H]2CN1C(=O)[C@@H](NC(=O)[C@@H](NC(=O)c1cnccn1)C(C)C)C(C)C)C(=O)C(=O)NC1CC1 (stereo partly drawn) [(1S,5S,6R)-4-Fluoro-2-((S)-3-methyl-2-{(S)-3-methyl-2-[(pyrazine-2-carbonyl)-amino]-butyrylamino}-butyryl)-octahydro-cyclopenta[c]pyrrole-1-carboxylic acid ((S)-1-cyclopropylaminooxalyl-butyl)-amide] | > 100000 | 300 | – | –
CCCC(NC(=O)[C@@H]1[C@H]2CC[C@H](F)[C@H]2CN1C(=O)[C@@H](NC(=O)[C@@H](NC(=O)c1cnccn1)C(C)C)C(C)C)C(=O)C(=O)N[C@@H](C)c1ccccc1 (stereo partly drawn) [(1S,5S,6R)-4-Fluoro-2-((S)-3-methyl-2-{(S)-3-methyl-2-[(pyrazine-2-carbonyl)-amino]-butyrylamino}-butyryl)-octahydro-cyclopenta[c]pyrrole-1-carboxylic acid [(S)-1-((S)-1-phenyl-ethylaminooxalyl)-butyl]-amide] | – | 315 | – | –
CCCC(NC(=O)C1[C@H]2CCC(=O)[C@H]2CN1C(=O)[C@@H](NC(=O)[C@@H](NC(=O)c1cnccn1)C(C)C)C(C)C)C(=O)C(=O)Nc1ccccc1 (stereo partly drawn) [(3aR,5S)-2-((S)-3-Methyl-2-{(S)-3-methyl-2-[(pyrazine-2-carbonyl)-amino]-butyrylamino}-butyryl)-4-oxo-octahydro-cyclopenta[c]pyrrole-1-carboxylic acid (1-phenylaminooxalyl-butyl)-amide] | > 100000 | 17 | – | –
CCCC(NC(=O)C1[C@H]2CCC(=O)[C@H]2CN1C(=O)[C@@H](NC(=O)[C@@H](NC(=O)c1cnccn1)C(C)C)C(C)C)C(=O)C(=O)NC1CC1 (stereo partly drawn) [(5S,6R)-2-((S)-3-Methyl-2-{(S)-3-methyl-2-[(pyrazine-2-carbonyl)-amino]-butyrylamino}-butyryl)-4-oxo-octahydro-cyclopenta[c]pyrrole-1-carboxylic acid (1-cyclopropylaminooxalyl-butyl)-amide] | > 100000 | 510 | – | –
CCCC(NC(=O)[C@@H]1[C@H]2CCC(F)(F)[C@H]2CN1C(=O)[C@@H](NC(=O)[C@@H](NC(=O)c1cnccn1)C(C)C)C(C)C)C(=O)C(=O)N[C@@H](Cc1ccccc1)C(=O)O (stereo partly drawn) [(S)-2-(3-{[(1S,5S,6R)-4,4-Difluoro-2-((S)-3-methyl-2-{(S)-3-methyl-2-[(pyrazine-2-carbonyl)-amino]-butyrylamino}-butyryl)-octahydro-cyclopenta[c]pyrrole-1-carbonyl]-amino}-2-oxo-hexanoylamino)-3-phenyl-propionic acid] | – | 176 | – | > 100000
CCCC(NC(=O)[C@@H]1[C@H]2CC[C@H](F)[C@H]2CN1C(=O)[C@@H](NC(=O)[C@@H](NC(=O)c1cnccn1)C(C)C)C(C)C)C(=O)C(=O)N[C@@H](Cc1ccccc1)C(=O)O (stereo partly drawn) [(S)-2-((S)-3-{[(1S,5S,6R)-4-Fluoro-2-((S)-3-methyl-2-{(S)-3-methyl-2-[(pyrazine-2-carbonyl)-amino]-butyrylamino}-butyryl)-octahydro-cyclopenta[c]pyrrole-1-carbonyl]-amino}-2-oxo-hexanoylamino)-3-phenyl-propionic acid] | – | 82 | – | > 100000
